Legend:
Format in all cases: in vivo
[1] = test system: Kochia (Kochia scoparia); assay: Test A preemergence; settings: for Kochia plant response rating (0 to 100 scale, 0 is no effect, 100 is complete control): visual injury approx. 10 d
Method in brief: (§1)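 In a loam soil and sand blend, planted seeds got a preemergence directed soil spray, and young plants at the one- to two-leaf stage, 2–10 cm high, got a postemergence application; ~10 d greenhouse hold; injury rated visually, 0 = none, 100 = complete control.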

[2] = test system: barnyardgrass (Echinochloa crus-galli); assay: Test A preemergence; settings: for Barnyardgrass plant response rating (0 to 100 scale, 0 is no effect, 100 is complete control): visual injury approx. 10 d
Method in brief: as §1

[3] = test system: giant foxtail (Setaria faberii); assay: Test A preemergence; settings: for Foxtail, Giant plant response rating (0 to 100 scale, 0 is no effect, 100 is complete control): visual injury approx. 10 d
Method in brief: as §1

[4] = test system: pigweed (Amaranthus retroflexus); assay: Test A preemergence; settings: for Pigweed plant response rating (0 to 100 scale, 0 is no effect, 100 is complete control): visual injury approx. 10 d
[5] = test system: ragweed (common ragweed, Ambrosia elatior); assay: Test A preemergence; settings: for Plant response rating, Ragweed: preemergence; for Ragweed plant response rating (0 to 100 scale, 0 is no effect, 100 is complete control): Preemergence, visual injury approx. 10 d
Method in brief: as §1

[6] = test system: ryegrass, Italian (Italian ryegrass, Lolium multiflorum); assay: Test A preemergence; settings: for Ryegrass, Italian plant response rating (0 to 100 scale, 0 is no effect, 100 is complete control): visual injury approx. 10 d
Method in brief: as §1

[7] = test system: Galium (catchweed bedstraw, Galium aparine); assay: Test A postemergence; settings: for Galium plant response rating: visual injury rating on 0 to 100 scale (0 no effect, 100 complete control), approx. 10 d
Method in brief: as §1

[8] = test system: Kochia (Kochia scoparia); assay: Test A postemergence; settings: for Kochia plant response rating: visual injury rating on 0 to 100 scale (0 no effect, 100 complete control), approx. 10 d
Method in brief: as §1

[9] = test system: barnyardgrass (Echinochloa crus-galli); assay: Test A postemergence; settings: for Barnyardgrass plant response rating: visual injury rating on 0 to 100 scale (0 no effect, 100 complete control), approx. 10 d
Method in brief: as §1

[10] = test system: blackgrass (Alopecurus myosuroides); assay: Test A postemergence; settings: for Blackgrass plant response rating: visual injury rating on 0 to 100 scale (0 no effect, 100 complete control), approx. 10 d
Method in brief: as §1

[11] = test system: corn (Zea mays); assay: Test A postemergence; settings: for Corn plant response rating: visual injury rating on 0 to 100 scale (0 no effect, 100 complete control), approx. 10 d
Method in brief: as §1

[12] = test system: giant foxtail (Setaria faberii); assay: Test A postemergence; settings: for Foxtail, Giant plant response rating: visual injury rating on 0 to 100 scale (0 no effect, 100 complete control), approx. 10 d
Method in brief: as §1

[13] = test system: pigweed (Amaranthus retroflexus); assay: Test A postemergence; settings: for Pigweed plant response rating: visual injury rating on 0 to 100 scale (0 no effect, 100 complete control), approx. 10 d
Method in brief: as §1

[14] = test system: ragweed (common ragweed, Ambrosia elatior); assay: Test A postemergence; settings: for Ragweed plant response rating: visual injury rating on 0 to 100 scale (0 no effect, 100 complete control), approx. 10 d
Method in brief: as §1

[15] = test system: ryegrass, Italian (Italian ryegrass, Lolium multiflorum); assay: Test A postemergence; settings: for Ryegrass, Italian plant response rating: visual injury rating on 0 to 100 scale (0 no effect, 100 complete control), approx. 10 d
Method in brief: as §1

[16] = test system: wheat (Triticum aestivum); assay: Test A postemergence; settings: for Wheat plant response rating: visual injury rating on 0 to 100 scale (0 no effect, 100 complete control), approx. 10 d
Method in brief: as §1

[17] = test system: barnyardgrass (Echinochloa crus-galli); assay: Test B flooded paddy test; settings: Flood, 250 g ai/ha; 0 to 100 scale where 0 is no effect and 100 is complete control; 13 to 15 d
Method in brief: (§2)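 2-leaf plants; pots flooded 3 cm over soil; cpd added to paddy water; depth held; greenhouse 13–15 d; visual rating vs controls, 0 = no effect, 100 = complete control.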

[18] = test system: ducksalad (Heteranthera limosa); assay: Test B flooded paddy test; settings: Flood, 250 g ai/ha; 0 to 100 scale where 0 is no effect and 100 is complete control; 13 to 15 d
Method in brief: as §2

[19] = test system: rice (Oryra sativa); assay: Test B flooded paddy test; settings: Flood, 250 g ai/ha; 0 to 100 scale where 0 is no effect and 100 is complete control; 13 to 15 d
Method in brief: as §2

[20] = test system: sedge, umbrella (small-flower umbrella sedge, Cyperus difformis); assay: Test B flooded paddy test; settings: Flood, 250 g ai/ha; 0 to 100 scale where 0 is no effect and 100 is complete control; 13 to 15 d
Method in brief: as §2

[21] = test system: blackgrass (Alopecurus myosuroides); assay: Test C preemergence; settings: for Plant response rating, Blackgrass: scale 0 to 100, 0 no effect, 100 complete control
Method in brief: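 Visual rating, 0–100 scale (0 = no effect, 100 = complete control) versus controls, 13–15 d after treatment. Compounds in non-phytotoxic solvent plus surfactant; applied preemergence to seeds in loam/sand soil or postemergence to 1- to 4-leaf plants (2–18 cm) in peat/vermiculite medium; greenhouse-held.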

[22] = 125 g ai/ha, Preemergence, visual injury after approximately 10 d, 0 to 100 scale where 0 is no effect and 100 is complete control
[23] = 500 g ai/ha, preemergence, 0 to 100 scale, 0 = no effect, 100 = complete control
[24] = 125 g ai/ha, postemergence, visual rating after approx. 10 d, 0 to 100 scale (0 no effect, 100 complete control)
[25] = Postemergence, 500 g ai/ha, 0 to 100 scale where 0 is no effect and 100 is complete control
[26] = 125 g ai/ha, preemergence, 0 to 100 scale (0 no effect, 100 complete control)
[27] = 125 g ai/ha, 0 to 100 scale (0 no effect, 100 complete control)
[28] = 500 g ai/ha, postemergence, 0 to 100 scale, 0 no effect, 100 complete control

CN1CC(c2cccc(OC(F)F)c2)C(C(=O)Nc2ccccc2F)C1=O (centres unmarked) [Compound 618]
Plant response rating, Kochia [1, 22]: 90
Plant response rating, Kochia [1, 23]: 90
Plant response rating, Barnyardgrass [2, 22]: 90
Plant response rating, Barnyardgrass [2, 23]: 90
Plant response rating, Foxtail, Giant [3, 22]: 90
Plant response rating, Foxtail, Giant [3, 23]: 100
Plant response rating, Pigweed [4, 22]: 50
Plant response rating, Pigweed [4, 23]: 90
Plant response rating, Ragweed ([5]; 500 g ai/ha, 0 to 100 scale, 0 = no effect, 100 = complete control): 70
Plant response rating, Ryegrass, Italian [6, 22]: 50
Plant response rating, Ryegrass, Italian [6, 23]: 90
Plant response rating, Galium [7, 24]: 50
Plant response rating, Galium [7, 25]: 60
Plant response rating, Kochia [8, 24]: 40
Plant response rating, Kochia [8, 25]: 60
Plant response rating, Barnyardgrass [9, 24]: 90
Plant response rating, Barnyardgrass [9, 25]: 90
Plant response rating, Blackgrass [10, 24]: 50
Plant response rating, Blackgrass [10, 25]: 60
Plant response rating, Corn [11, 24]: 80
Plant response rating, Corn [11, 25]: 80
Plant response rating, Foxtail, Giant [12, 24]: 90
Plant response rating, Foxtail, Giant [12, 25]: 90
Plant response rating, Pigweed [13, 24]: 0
Plant response rating, Pigweed [13, 25]: 30
Plant response rating, Ragweed [14, 24]: 0
Plant response rating, Ragweed [14, 25]: 20
Plant response rating, Ryegrass, Italian [15, 24]: 40
Plant response rating, Ryegrass, Italian [15, 25]: 50
Plant response rating, Wheat [16, 24]: 50
Plant response rating, Wheat [16, 25]: 70
Plant response rating, Barnyardgrass [17]: 85
Plant response rating, Ducksalad [18]: 100
Plant response rating, Rice [19]: 10
Plant response rating, Sedge, Umbrella [20]: 0
Plant response rating (scale of 0 to 100), Blackgrass ([21]; 31 g ai/ha, 0 is no effect, 100 is complete control): 0
Plant response rating, Blackgrass ([21]; 62 g ai/ha): 10
Plant response rating, Blackgrass ([21]; 125 g ai/ha): 60
Plant response rating, Blackgrass ([21]; 250 g ai/ha): 80

CN1CC(c2ccc(C(F)(F)F)cc2)C(C(=S)Nc2ccccc2F)C1=O (centres unmarked) [Compound 450]
Plant response rating, Kochia [1, 26]: 50
Kochia plant response rating (0 to 100 scale, 0 is no effect, 100 is complete control) ([1]; Preemergence, 500 g ai/ha): 80
Plant response rating, Barnyardgrass [2, 26]: 90
Barnyardgrass plant response rating (0 to 100 scale, 0 is no effect, 100 is complete control) ([2]; Preemergence, 500 g ai/ha): 90
Plant response rating, Foxtail, Giant [3, 26]: 90
Foxtail, Giant plant response rating (0 to 100 scale, 0 is no effect, 100 is complete control) ([3]; Preemergence, 500 g ai/ha): 90
Plant response rating, Pigweed [4, 26]: 70
Pigweed plant response rating (0 to 100 scale, 0 is no effect, 100 is complete control) ([4]; Preemergence, 500 g ai/ha): 80
Plant response rating, Ragweed [5, 27]: 20
Ragweed plant response rating (0 to 100 scale, 0 is no effect, 100 is complete control) ([5]; 500 g ai/ha): 70
Plant response rating, Ryegrass, Italian [6, 26]: 0
Ryegrass, Italian plant response rating (0 to 100 scale, 0 is no effect, 100 is complete control) ([6]; Preemergence, 500 g ai/ha): 40
Galium plant response rating ([7]; 125 g ai/ha, postemergence): 50
Plant response rating, Galium [7, 28]: 60
Kochia plant response rating ([8]; 125 g ai/ha, postemergence): 20
Plant response rating, Kochia [8, 28]: 50
Barnyardgrass plant response rating ([9]; 125 g ai/ha, postemergence): 80
Plant response rating, Barnyardgrass [9, 28]: 90
Blackgrass plant response rating ([10]; 125 g ai/ha, postemergence): 20
Plant response rating, Blackgrass [10, 28]: 40
Corn plant response rating ([11]; 125 g ai/ha, postemergence): 20
Plant response rating, Corn [11, 28]: 60
Foxtail, Giant plant response rating ([12]; 125 g ai/ha, postemergence): 80
Plant response rating, Foxtail, Giant [12, 28]: 80
Pigweed plant response rating ([13]; 125 g ai/ha, postemergence): 50
Plant response rating, Pigweed [13, 28]: 60
Ragweed plant response rating ([14]; 125 g ai/ha, postemergence): 20
Plant response rating, Ragweed [14, 28]: 30
Ryegrass, Italian plant response rating ([15]; 125 g ai/ha, postemergence): 0
Plant response rating, Ryegrass, Italian [15, 28]: 50
Wheat plant response rating ([16]; 125 g ai/ha, postemergence): 0
Plant response rating, Wheat [16, 28]: 30
Plant response rating, Barnyardgrass [17]: 45
Plant response rating, Ducksalad [18]: 75
Plant response rating, Rice [19]: 0
Plant response rating, Sedge, Umbrella [20]: 0
Plant response rating, Blackgrass ([21]; 31 g ai/ha): 0
Plant response rating, Blackgrass ([21]; 62 g ai/ha): 0
Plant response rating, Blackgrass ([21]; 125 g ai/ha): 45
Plant response rating, Blackgrass ([21]; 250 g ai/ha): 60

CN1CC(c2ccc(C(F)(F)F)c(F)c2)C(C(=O)Nc2ccccc2S(C)(=O)=O)C1=O (centres unmarked) [Compound 397]
Plant response rating, Kochia [1, 26]: 70
Kochia plant response rating (0 to 100 scale, 0 is no effect, 100 is complete control) ([1]; Preemergence, 500 g ai/ha): 90
Plant response rating, Barnyardgrass [2, 26]: 80
Barnyardgrass plant response rating (0 to 100 scale, 0 is no effect, 100 is complete control) ([2]; Preemergence, 500 g ai/ha): 90
Plant response rating, Foxtail, Giant [3, 26]: 90
Foxtail, Giant plant response rating (0 to 100 scale, 0 is no effect, 100 is complete control) ([3]; Preemergence, 500 g ai/ha): 90
Plant response rating, Pigweed [4, 26]: 90
Pigweed plant response rating (0 to 100 scale, 0 is no effect, 100 is complete control) ([4]; Preemergence, 500 g ai/ha): 90
Plant response rating, Ragweed [5, 27]: 50
Ragweed plant response rating (0 to 100 scale, 0 is no effect, 100 is complete control) ([5]; 500 g ai/ha): 70
Plant response rating, Ryegrass, Italian [6, 26]: 30
Ryegrass, Italian plant response rating (0 to 100 scale, 0 is no effect, 100 is complete control) ([6]; Preemergence, 500 g ai/ha): 70
Galium plant response rating ([7]; 125 g ai/ha, postemergence): 60
Plant response rating, Galium [7, 28]: 60
Kochia plant response rating ([8]; 125 g ai/ha, postemergence): 20
Plant response rating, Kochia [8, 28]: 50
Barnyardgrass plant response rating ([9]; 125 g ai/ha, postemergence): 70
Plant response rating, Barnyardgrass [9, 28]: 90
Blackgrass plant response rating ([10]; 125 g ai/ha, postemergence): 60
Plant response rating, Blackgrass [10, 28]: 70
Corn plant response rating ([11]; 125 g ai/ha, postemergence): 50
Plant response rating, Corn [11, 28]: 70
Foxtail, Giant plant response rating ([12]; 125 g ai/ha, postemergence): 70
Plant response rating, Foxtail, Giant [12, 28]: 80
Pigweed plant response rating ([13]; 125 g ai/ha, postemergence): 40
Plant response rating, Pigweed [13, 28]: 70
Ragweed plant response rating ([14]; 125 g ai/ha, postemergence): 0
Plant response rating, Ragweed [14, 28]: 20
Ryegrass, Italian plant response rating ([15]; 125 g ai/ha, postemergence): 40
Plant response rating, Ryegrass, Italian [15, 28]: 60
Wheat plant response rating ([16]; 125 g ai/ha, postemergence): 40
Plant response rating, Wheat [16, 28]: 50
Plant response rating, Barnyardgrass [17]: 65
Plant response rating, Ducksalad [18]: 75
Plant response rating, Rice [19]: 0
Plant response rating, Sedge, Umbrella [20]: 0
Plant response rating, Blackgrass ([21]; 31 g ai/ha): 55
Plant response rating, Blackgrass ([21]; 62 g ai/ha): 70
Plant response rating, Blackgrass ([21]; 125 g ai/ha): 90
Plant response rating, Blackgrass ([21]; 250 g ai/ha): 90

— patent US12077503B2, “Substituted cyclic amides and their use as herbicides” (FMC CORPORATION, priority 2015, dated 2024)
